{"source": "patent US20070281036A1", "about": "“System and method of delivering a desired material to a cell” (University of Vermont and State Agricultural College, priority 2005, published 2007)", "key": {"[1]": {"system": "human mesothelioma (MM) cells", "assay": "LDH release assay of cell lysis, MM cells", "conditions": "doses of DOX ranging from 800 nM to 2000 nM; 48 h", "description": "Cells were plated and grown to 70-80% confluence at 37° C. in complete medium. Medium was aspirated and replaced with maintenance medium containing 0.5% FBS, and incubated for 24 hrs.\nBriefly, cells were treated with APMS and/or DOX alone and in combination for varying amounts of time, and 50 μl of the supernatant was removed (in triplicate) and placed into wells of a 96-well plate. Fifty μl of substrate buffer was added to each well, and the plate was incubated for 30 min at room temperature in the dark. Fifty μl of stop solution was then added, and plates were read at 490 nm."}, "ERK1/2": {"system": "ERK1/2", "assay": "Western blot for phosphorylated ERK1/2", "format": "cell-based, human", "conditions": "80 nM DOX; 4, 8, 24 and 48 h", "method": "(§1) Western Blot Analyses for Phosphorylated ERK's1/2 and AKT To determine whether DOX at low concentrations delivered by APMS modified signaling pathways associated with cell survival, nearly confluent MM cells were washed 3× with cold PBS, scraped from culture plates, and collected by centrifugation at 14,000 rpm for 1 min. The pellet was resuspended in lysis buffer [20 mM Tris (pH 7.4), 1% Triton X-100, 10% glycerol, 137 mM NaCl, 2 mM EDTA, 25 mM β-glycerophosphate, 1 mM Na3VO4, 2 mM pyrophosphate, 1 mM PMSF, 10 μg/ml leupeptin, 1 mM DTT, 10 mM NaF, 1% aprotinin], incubated at 4° C. for 15 min, and centrifuged at 14,000 rpm for 20 min. Protein concentrations were determined using a Bio-Rad RC-DC Assay (Bio-Rad Laboratories, Hercules, Calif.). […] of protein in sample buffer [62.5 mM Tris-HCl (pH 6.8), 2% sodium dodecyl sulfate (SDS), 10% glycerol, 50 mM dithiothreitol, 0.1% w/v bromophenol blue] was resolved by electrophoresis in 10% SDS-polyacrylamide gels, and transferred to nitrocellulose using a Mini Trans-Blot Cell apparatus (Bio-Rad Laboratories). […] Blots were washed 3× in TBS/0.1% Tween-20, and protein bands were visualized with the ECL Western Blotting Detection Reagents (Amersham Biosciences, GE Healthecare UK Limited, Buckinghamshire, UK) and quantitated using a Bio-Rad phosphorimager."}, "[2]": {"system": "phosphorylated histone protein H2AX (γH2AX)", "assay": "Immunocytochemical analysis of γH2AX", "format": "cell-based, human", "conditions": "80 nM DOX; 8 and 24 h; compared to control", "method": "Mechanisms of Cytotoxicity. To explore mechanisms of toxicity of DOX at low concentrations delivered by APMS, levels of phosphorylated histone protein H2AX (γH2AX), a marker of DNA double strand breaks, and Apoptosis Inducing Factor (AIF), a marker of mitochondrial mediated apoptosis, were analyzed.\nImmunocytochemical Analysis ofphosphorylated histone protein H2AX (γH2AX). Monolayers of cells were grown on glass coverslips and treated as described above. Cells were then washed in PBS, then fixed in 4% paraformaldehyde and permeabilized in 0.1% Triton X-100. Cells were blocked for 1 h at room temperature in PBS containing 3% bovine serum albumin (BSA), then incubated in a 1:500 dilution of mouse monoclonal anti-phospho-histone H2AX antibody (#05-636, Upstate Cell Signaling, Charlottesville, Va.) in 3% BSA overnight at 4° C. Cells were then washed in PBS and incubated in a 1:300 dilution of goat anti-mouse IgO conjugated to Alexa-647 fluorescent tag (Molecular Probes, Invitrogen) in PBS for 45 min at room temperature in the dark. […] Coverslips were then washed and mounted on glass slides using Aqua Poly/Mount (#18606, Polysciences, Inc., Warrington, Pa.) and analyzed using a Zeiss LSM 510 META confocal scanning laser microscope (Carl Zeiss Microimaging)."}, "AKT": {"system": "AKT", "assay": "Western blot for phosphorylated AKT", "format": "cell-based, human", "conditions": "80 nM DOX; each time point", "method": "as §1"}, "MM cells [3]": {"system": "MM cells", "assay": "MTS cell viability assay", "format": "cell-based, human", "conditions": "80 nM DOX; varying amounts of time", "method": "Cell viability was measured in treated cells by using the calorimetric MTS Assay, CellTiter 96 AQueous One Solution Cell Proliferation Assay (Promega) as per the manufacturer's recommendations. Briefly, 5×10^3 cells were plated in a 96-well microtiter plate and allowed to recover overnight. Medium was aspirated, and cells were maintained in a low serum-containing medium for 24 h prior to treatment for varying amounts of time with APMS and/or DOX. MTS reagent was added, plates were incubated at 37° C. for 2-3 h and the absorbance of the wells was read at 492 nm as a measure of cell viability."}, "NF-κB": {"system": "NF-κB", "assay": "NF-κB electrophoretic mobility shift assay", "format": "cell-based, human", "method": "NF-κB Electrophoretic Mobility Shift Assay. Electrophoretic gel mobility shift assays were used to assess the binding of NF-κB to DNA. Nuclear extracts of MM cells treated with 80 nM DOX, 100 μM DOX, APMS-TEG, APMS-TEG preloaded with 80 nM DOX (APMS-DOX80) for 4 h, were prepared as described previously (14). Samples were treated with or without TNF-α, 1 h prior to harvesting nuclear protein. The amount of protein in each sample was determined with the Bio-Rad protein assay (Bio-Rad). A ^32P-end-labeled double stranded oligodeoxynucleotide representing the specific element that contains an NF-κB consensus sequence (E3292, Promega, Madison, Wis.) was incubated with 3 μg of extract as described previously (15). The components of the NF-κB complex were identified by antibodies specific for p50 and p65 proteins (Santa Cruz Biotechnology, Inc., Santa Cruz, Calif.). Autoradiograms were developed and quantitated with a Bio-Rad phosphorimager."}, "human mesothelioma cells": {"system": "human mesothelioma cells", "format": "cell-based", "method": "We have also modified existing HPLC methods (Andersen et al, 1993, 1994; De Bruijn et al, 1999) to compare the amounts of DOX transferred to cellular interiors by DOX-loaded APMS and DOX alone. More DOX is transferred to cells when it is preloaded into APMS than when it is administered alone. Briefly, measurement of cellular DOX concentrations was accomplished by lysis and enzymatic digestion of the cellular contents, along with centrifugation. […] Similar methodology was used to quantify the amount of extracellular DOX, and since the total amount of DOX within the APMS particles prior to its addition to the cell culture was known, the amount of DOX remaining within the particles could be determined (FIG. 7). Intracellular and extracellular amounts of DOX were measured by fluorescence HPLC after digestion and release of DOX from cellular material (FIG. 7A). […]\nPreloading APMS with Doxorubicin (DOX). […] The concentration of DOX within the APMS were calculated theoretically and verified via HPLC following hydration overnight in water or methanol at room temperature, as previously described (13). Concentrations of DOX in cells were measured. […] Similar methodology was used to quantify the amount of extracellular DOX, and since the total amount of DOX within the APMS particles prior to its addition to the cell culture was known, the amount of DOX remaining within the particles could be determined."}, "MM cells [4]": {"system": "MM cells", "assay": "Flow cytometry of mechanisms of APMS uptake", "format": "cell-based, human", "conditions": "30 min pretreatment; chlorpromazine 5 μg/ml, cytochalasin D 1 μM, filipin 6.25 μg/ml; vs control at 37° C.", "method": "Cells were exposed for 30 min to chemical inhibitors of specific uptake mechanisms: chlorpromazine ([…]), cytochalasin D (1 μM), or filipin (6.25 μg/ml), i.e. at effective concentrations as reported in the literature (25-29), or incubated at 4° C. for 30 min prior to addition of APMS for various amounts of time. Hoechst 33342 nucleic acid dye (16.2 μM) (Molecular Probes, Invitrogen) was added 15 min prior to harvesting cells. Cells were washed once in PBS and removed from dishes using Accutase cell detachment solution (Innovative Cell Technologies, Inc. San Diego, Calif.), pelleted by centrifugation, resuspended in calcium and magnesium-free phosphate buffered saline (PBS), and kept on ice until analyzed. Samples were analyzed using a BD LSRII flow cytometer (BD Biosciences, San Jose, Calif.) equipped with a Sapphire 488 (Coherent, Santa Clara, Calif.) laser which emits at 488 nm to excite the Alexa 488 dye, and a solid state Xcite (Lightwave) which emits at 355 nm to excite the Hoechst 333342 nucleic acid dye (Molecular Probes, Invitrogen). Data analysis was performed at the time of acquisition using Flow Jo (Tree Star, Inc., Ashland, Oreg.). This software package is an experiment-based flow cytometry data analysis package designed for multi-color research.\nTo verify that the gating used in determining cell populations was accurate, FACS analysis was performed on different populations. Populations of cells/APMS were selected based on their locations on histograms, and were sorted, collected and mounted on glass slides using cytocentriftigation. […] The fluorescent signals from Alexa 488 were detected using 530/30 BP and 505 LP filters. Hoechst staining was detected using 440/40 BP filter. Identification and quantification of populations on cytospins were performed manually with phase contrast and fluorescence microscopy using an Olympus BX50 microscope (Olympus America, Lake Success, N.Y.)."}}}
{"compound": "COc1cccc2c1C(=O)c1c(O)c3c(c(O)c1C2=O)C[C@@](O)(C(=O)CO)C[C@@H]3O[C@H]1C[C@H](N)[C@H](O)[C@H](C)O1", "note": "[DOX, doxorubicin]", "values": [{"measurement": "cell death compared to total LDH released from lysed cells", "setting": "[1]", "result": "10-13%"}, {"measurement": "phospho-ERK1/2: total ERK1/2 ratio", "setting": "ERK1/2", "result": "do not significantly affect"}, {"measurement": "levels of γH2AX", "setting": "[2]", "result": "increased"}, {"measurement": "phospho-AKT: total AKT ratios", "setting": "AKT", "result": "did not significantly affect"}, {"measurement": "cell viability (MTS)", "setting": "MM cells [3]", "result": "no significant difference"}, {"measurement": "NF-κB-DNA binding after adding TNF-α 1 hr prior to harvesting", "setting": "NF-κB; 80 nM DOX", "result": "further increased the DNA binding"}, {"measurement": "NF-κB-DNA binding after adding TNF-α for 1 h prior to harvesting", "setting": "NF-κB; 100 μM DOX", "result": "could not be reversed"}, {"measurement": "NF-κB-DNA binding activity", "setting": "NF-κB; 100 μM DOX (a lethal concentration), 4 h", "result": "ablated"}, {"measurement": "NF-κB-DNA binding activity", "setting": "NF-κB; 4 h exposure, 80 nM DOX, compared to controls", "result": "increased"}, {"measurement": "amount of DOX transferred to the cell relative to DOX preloaded into APMS", "setting": "human mesothelioma cells", "result": "Approximately half as much"}, {"measurement": "maximum amount of DOX transferred to the cellular interior, of the initial dose", "setting": "human mesothelioma cells; human", "result": "approximately 25%"}]}
{"compound": "CN(C)CCCN1c2ccccc2Sc2ccc(Cl)cc21", "note": "[chlorpromazine]", "values": [{"measurement": "effect of inhibitor pretreatment on APMS-TEG particle uptake", "setting": "MM cells [4]", "result": "no inhibition"}]}
{"compound": "C=C1[C@@H](C)[C@H]2[C@H](Cc3ccccc3)NC(=O)[C@]23[C@H](OC(C)=O)/C=C/[C@@](C)(O)C(=O)[C@@H](C)C/C=C/[C@H]3[C@@H]1O", "note": "[cytochalasin D]", "values": [{"measurement": "effect of inhibitor pretreatment on APMS-TEG particle uptake", "setting": "MM cells [4]", "result": "decreased numbers of APMS-containing cells"}]}
{"compound": "CCCCC[C@@H](O)[C@H]1C(=O)O[C@H](C)[C@@H](O)/C=C/C=C/C=C/C=C/C=C(\\C)[C@@H](O)C[C@H](O)C[C@H](O)C[C@H](O)C[C@H](O)C[C@H](O)C[C@@H]1O", "note": "[filipin]", "values": [{"measurement": "effect of inhibitor pretreatment on APMS-TEG particle uptake", "setting": "MM cells [4]", "result": "no inhibition"}]}
{"compound": "TNF-α", "values": [{"measurement": "NF-κB DNA binding", "setting": "NF-κB; 1 hr incubation", "result": "dramatically increased DNA binding"}]}
